{
  "source": "paper PMC10492782",
  "about": "“Exploiting the aggregation propensity of beta-lactamases to design inhibitors that induce enzyme misfolding” (Nature Communications, 2023)",
  "key": {"[1]": {"target": "T1, recombinantly purified TEM-1 (Escherichia coli, UniProt P62593)", "T1 construct": "His-tag (N); TEV cleavage site (N); made in house; host or cells: E. coli BL21 (DE3)", "T1 sequence (P62593 24-286 limits assumed)": "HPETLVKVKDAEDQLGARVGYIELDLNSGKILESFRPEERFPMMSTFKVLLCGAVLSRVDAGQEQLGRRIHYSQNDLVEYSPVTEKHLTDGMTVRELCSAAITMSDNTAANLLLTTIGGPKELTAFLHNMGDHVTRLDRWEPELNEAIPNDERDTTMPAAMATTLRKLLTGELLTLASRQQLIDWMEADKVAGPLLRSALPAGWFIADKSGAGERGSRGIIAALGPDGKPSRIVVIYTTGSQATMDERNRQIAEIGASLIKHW", "assay_type": "biochemical, E. coli", "details": "pFTAA fluorescence kinetics", "procedure": "(§1) Fig. 4 Aggregation kinetics of TEM and SHV proteins and peptides. A Measurements of the hydrodynamic radius by Dynamic Light Scattering of 50 μM TEM3.2 in buffer alone, or in the presence of LPS or polyphosphate (PolyP). […] C Transmission Electron Micrograph of 50 μM TEM 3.2 incubated for 24 h in the same buffer as A with polyP, negatively stained with 2% (w/v) uranyl acetate. A single representative image is shown. […] Three replicates are shown for each condition. E Aggregation kinetics using pFTAA fluorescence emission of recombinantly purified TEM-1, in the presence of vehicle, or TEM 3.2 peptin, as well as peptin-only control. F Similar as in E, but using an off-target Pept-In, based on an APR sequence of beta-galactosidase. G Similar to E, but now using a previously published off-target Pept-In, based on an APR of HcaB. The plots are the results of a single experiment, all replicates are shown. Source data are provided as a Source Data file."}, "[2]": {"assay": "Hematologic analysis after repeated dosing", "details": "daily IV injections, 5 mg/kg"}, "[3]": {"target": "T2, TEM beta-lactamase in E. coli strain UZ_TEM104 (Escherichia coli, UniProt P62593)", "T2 construct": "endogenous in cells", "T2 sequence (P62593 24-286 limits assumed)": "as above", "assay": "Western blot of inclusion body fraction", "assay_type": "cell-based", "details": "12 μM peptide in PBS, 120 min", "excerpt": "Fig. 5 Induction of aggregation in cells. […] A single representative image is shown. […] A single representative image is shown. C SIM and brightfield images as in A, but for E. coli ATCC strain. […] A single representative image is shown. […] A single representative blot is shown. […] The corrected P-values were 0.6091, 0.0029, 0.0027, <0.0001, and 0.9992, from left to right. […] Statistics exactly as in E, but from 3 independent experiments. The corrected P-values were 0.8753, 0.9796, 0.0001, 0.0003, and 0.0003, from left to right. Source data are provided as a Source Data file.\nOvernight cultures of bacteria were centrifuged for 30 min at 4000 × g and cells were washed with physiological water (NaCl 0.9%). Bacterial cells were treated by peptide at the appropriate concentration for at least 2 h at 37 C. The bacterial pellets were washed with 10 mL buffer A (50 mM HEPES, pH 7.5, 300 mM NaCl, 5 mM β-mercaptoethanol, 1.0 mM EDTA) and centrifuged at 4 °C for 30 min at 4000 × g. […]"}, "[4]": {"system": "primary Human Umbilical Vein Endothelial Cells (HUVEC)", "details": "24 h, 400 to 12.5 µg/mL"}, "SH-SY5Y": {"system": "SH-SY5Y", "details": "24 h, 400 to 6.25 µg/mL", "procedure": "(§2) The Cell Titer Blue assay was performed to evaluate the cell viability according to the instructions of the manufacturer (Promega, USA). The peptide treatments were done in DMEM medium without serum. Briefly, cells were seeded to approximately 20,000 mammalian cells per well in a 96-well flat-bottom plate (BD Biosciences 353075) and incubated at 37 °C with 5% CO2 and 90% humidity. Peptides were diluted in cell medium, and cells were treated for 24 h. 20 μL of the CellTiter Blue reagent was added to each well and the plate was incubated for 1 h at 37 °C. The fluorescence was measured at 590 nm by exciting at 560 nm with a ClarioStar plate reader (BMG Labtech, Germany).\n(§3) Khodaparast et al Supplementary data\n(§4) Supplementary Figure 12: Cell viability assays on mammalian cells using the CellTiter Blue assay, plotted as relative values compared to vehicle. The colours of the bars show the concentrations indicated in the legends in µg/mL, ranging from 400 to 6.25 µg/mL. The dots indicate individual measurements on independent wells of cells (4 repeats), the bars"}, "HT-1376": {"system": "HT-1376", "details": "24 h, 400 to 6.25 µg/mL", "procedure": "as §2, §3, §4"}, "[5]": {"assay": "pFTAA fluorescence of peptide aggregates", "assay_type": "physicochemical", "details": "50 μM peptide, PolyP condition", "procedure": "as §1"}, "[6]": {"system": "uro-pathogenic E. coli strain (UPEC strain blaTEM-1)", "assay": "MIC of ampicillin with or without 32 µg/mL TEM3.2 or tazobactam", "assay_type": "cell-based, Escherichia coli", "details": "32 μg/mL of either TEM3.2 or tazobactam", "procedure": "We also performed a tolerability study using a dose escalation method by administering the peptide at 2, 5, 10, 15, and 20 mg/kg via different parenteral routes: intravenous (IV), intraperitoneal (IP), and subcutaneous (SC) in female C57BL/6JAX mice, aged 8–10 weeks (Suppl Table 4). […] Vehicle alone (0.9% NaCl) was also administered (IV). After 24 h the animals were sacrificed and the bacterial load in the bladder, kidney, and ureter was quantified by determining the number of colony-forming units (CFU) per mL of tissue extract (Fig. 7E–G).\nDetermination of MIC values was performed using the broth microdilution method according to the EUCAST guideline, which was performed in 96-well polystyrene flat-bottom microtiter plates (BD Biosciences). Briefly, a single colony was inoculated into 5 mL Difco™ Mueller–Hinton Broth (BD Biosciences Ref 275730) and grown to the end-exponential growth phase in a shaking incubator at 37 °C. Cultures were subsequently diluted to a MacFarland (0.5 optical density) to reach 10^6 CFU/mL in fresh MHB medium. 50 µl of different concentrations of peptides ranging from 128 to 2 µg/mL were serially diluted to the sterile 96-well plate in MHB. 50 µL of the diluted bacteria in MHB were next pipetted into 96-well plates to reach the final volume of 100 µL. The bacteria grown with the maximum concentration of carrier and medium were considered positive and negative controls, respectively. The plates were statically incubated overnight at 37 °C to allow bacterial growth. OD was measured at 590 nm using a multipurpose ultraviolet–visible plate reader, and the absorbance of the bacterial growth was measured using an absorbance reader."}},
  "data": [
    {"substance": "Ac-RLTAFLHNRRPRLTAFLRQRR-NH2 [TEM3.2]", "values": [
      {"measurement": "induction of aggregation of recombinantly purified TEM beta-lactamase (in words)", "setting": "[1]", "value": "potent inducer of the aggregation of the TEM beta-lactamase"},
      {"measurement": "hematologic analysis (in words)", "setting": "[2]", "value": "no major discrepancies to vehicle-treated controls"},
      {"measurement": "TEM protein in inclusion body fraction, western blot (in words)", "setting": "[3]", "value": "clear enrichment of the TEM protein in IBs"},
      {"measurement": "cytotoxicity, Cell Titer Blue (in words)", "setting": "[4]", "value": "not cytotoxic"},
      {"measurement": "cytotoxicity, Cell Titer Blue (in words)", "setting": "SH-SY5Y", "value": "not cytotoxic"},
      {"measurement": "cytotoxicity, Cell Titer Blue (in words)", "setting": "HT-1376", "value": "not cytotoxic"},
      {"measurement": "pFTAA staining of fibrils (in words)", "setting": "[5]", "value": "stain positive for pentameric formyl thiophene acetic acid (pFTAA)"},
      {"measurement": "MIC Ampicillin in the presence of additive", "setting": "[6]", "value": 25, "unit": "µg/mL"}
    ]}
  ]
}
